Test results reported in ChEMBL document CHEMBL3044789, “Comparing weed and crop seedling response to pre-emergence pendimethalin application in Corchorus olitorius and Abelmoschus esculentus” (Crop Prot, 2006).

How the values were obtained:
Chromolaena odorata [1] = assay: Herbicidal activity against Chromolaena odorata in Corchorus olitorius plots assessed as major weed growth at 0.33 kg a.i/ha after 2 weeks; type: functional
Calopogonium mucunoides [2] = assay: Herbicidal activity against Calopogonium mucunoides in Abelmoschus esculentus plots assessed as weed cover at 0.66 kg a.i/ha after 7 weeks (reference value: 14.7 +/- 0.46 %); type: functional
Synedrella nodiflora [3] = assay: Herbicidal activity against Synedrella nodiflora in Abelmoschus esculentus plots assessed as weed cover at 0.66 kg a.i/ha after 7 weeks (reference value: 14.7 +/- 0.46 %); type: functional
Calopogonium mucunoides [4] = assay: Herbicidal activity against Calopogonium mucunoides in Abelmoschus esculentus plots assessed as major weed growth at 0.33 kg a.i/ha after 2 weeks; type: functional
Commelina diffusa [5] = assay: Herbicidal activity against Commelina diffusa in Abelmoschus esculentus plots assessed as weed cover at 0.66 kg a.i/ha after 2 weeks (reference value: 63.5 +/- 0.29 %); type: functional
Euphorbia heterophylla [6] = assay: Herbicidal activity against Euphorbia heterophylla in Abelmoschus esculentus plots assessed as weed recovery at 0.99 kg a.i/ha after 2 weeks (reference value: 60.1 +/- 0.46 %); type: functional
Talinum fruticosum [7] = assay: Herbicidal activity against Talinum fruticosum in Abelmoschus esculentus plots assessed as weed cover at 0.99 kg a.i/ha after 7 weeks (reference value: 14.7 +/- 0.46 %); type: functional
[8] = test system: Rottboellia cochinchinensis; assay: Herbicidal activity against Rottboellia cochinchinensis in Abelmoschus esculentus plots assessed as weed cover at 0.33 kg a.i/ha after 2 weeks (reference value: 63.5 +/- 0.29 %); type: functional
Corchorus olitorius [9] = assay: Phytotoxicity in Corchorus olitorius assessed as seed germination at 0.33 kg a.i/ha applied as solution after 7 weeks relative to untreated control; type: organism-based; details: in vivo, other, 1176 h
Calopogonium mucunoides [10] = assay: Herbicidal activity against Calopogonium mucunoides in Abelmoschus esculentus plots assessed as major weed growth at 0.99 kg a.i/ha after 2 weeks; type: functional
Euphorbia heterophylla [11] = assay: Herbicidal activity against Euphorbia heterophylla in Corchorus olitorius plots assessed as weed cover at 1.32 kg a.i/ha after 2 weeks (reference value: 81.7 +/- 0.43 %); type: functional
[12] = test system: Rottboellia cochinchinensis; assay: Herbicidal activity against Rottboellia cochinchinensis in Corchorus olitorius plots assessed as weed cover at 0.33 kg a.i/ha after 7 weeks (reference value: 1.7 +/- 0.56 %); type: functional
Cyperus rotundus = assay: Herbicidal activity against Cyperus rotundus form in Abelmoschus esculentus plots assessed as minor weed growth at 0.66 kg a.i/ha after 2 weeks; type: functional
Synedrella nodiflora [13] = assay: Herbicidal activity against Synedrella nodiflora in Abelmoschus esculentus plots assessed as weed recovery at 1.32 kg a.i/ha after 2 weeks (reference value: 60.1 +/- 0.46 %); type: functional
Commelina diffusa [14] = assay: Herbicidal activity against Commelina diffusa in Abelmoschus esculentus plots assessed as minor weed growth at 0.66 kg a.i/ha after 2 weeks; type: functional
Ageratum conyzoides [15] = assay: Herbicidal activity against Ageratum conyzoides in Abelmoschus esculentus plots assessed as weed cover at 0.33 kg a.i/ha after 7 weeks (reference value: 14.7 +/- 0.46 %); type: functional
Calopogonium mucunoides [16] = assay: Herbicidal activity against Calopogonium mucunoides in Abelmoschus esculentus plots assessed as weed cover at 0.33 kg a.i/ha after 2 weeks (reference value: 63.5 +/- 0.29 %); type: functional
Corchorus olitorius [17] = assay: Phytotoxicity in Corchorus olitorius assessed as seedling injury at 0.99 kg a.i/ha applied as solution after 7 weeks relative to control; type: organism-based; details: in vivo, other, 1176 h
Talinum fruticosum [18] = assay: Herbicidal activity against Talinum fruticosum in Abelmoschus esculentus plots assessed as weed cover at 0.99 kg a.i/ha after 4 weeks (reference value: 22.6 +/- 0.49 %); type: functional
Ageratum conyzoides [19] = assay: Herbicidal activity against Ageratum conyzoides in Corchorus olitorius plots assessed as weed recovery at 0.33 kg a.i/ha after 2 weeks (reference value: 78.3 +/- 0.74 %); type: functional
Chromolaena odorata [20] = assay: Herbicidal activity against Chromolaena odorata in Corchorus olitorius plots assessed as weed cover at 1.32 kg a.i/ha after 2 weeks (reference value: 81.7 +/- 0.43 %); type: functional
Euphorbia heterophylla [21] = assay: Herbicidal activity against Euphorbia heterophylla in Abelmoschus esculentus plots assessed as weed recovery at 0.66 kg a.i/ha after 2 weeks (reference value: 60.1 +/- 0.46 %); type: functional
Calopogonium mucunoides [22] = assay: Herbicidal activity against Calopogonium mucunoides in Abelmoschus esculentus plots assessed as weed cover at 0.66 kg a.i/ha after 4 weeks (reference value: 22.6 +/- 0.49 %); type: functional
Abelmoschus esculentus [23] = assay: Phytotoxicity in Abelmoschus esculentus assessed as root length at 0.66 kg a.i/ha applied as solution after 7 weeks (reference value: 23 +/- 0.34 mm); type: organism-based; details: in vivo, other, 1176 h
Euphorbia heterophylla [24] = assay: Herbicidal activity against Euphorbia heterophylla in Corchorus olitorius plots assessed as weed cover at 0.99 kg a.i/ha after 4 weeks (reference value: 20.1+/- 0.57 %); type: functional
[25] = test system: Rottboellia cochinchinensis; assay: Herbicidal activity against Rottboellia cochinchinensis in Corchorus olitorius plots assessed as major weed growth at 0.33 kg a.i/ha after 2 weeks; type: functional
Synedrella nodiflora [26] = assay: Herbicidal activity against Synedrella nodiflora in Abelmoschus esculentus plots assessed as weed cover at 0.99 kg a.i/ha after 4 weeks (reference value: 22.6 +/- 0.49 %); type: functional
Synedrella nodiflora [27] = assay: Herbicidal activity against Synedrella nodiflora in Abelmoschus esculentus plots assessed as weed recovery at 0.99 kg a.i/ha after 2 weeks (reference value: 60.1 +/- 0.46 %); type: functional
Synedrella nodiflora [28] = assay: Herbicidal activity against Synedrella nodiflora in Abelmoschus esculentus plots assessed as weed cover at 0.99 kg a.i/ha after 7 weeks (reference value: 14.7 +/- 0.46 %); type: functional
Corchorus olitorius [29] = assay: Phytotoxicity in Corchorus olitorius assessed as shoot length at 0.66 kg a.i/ha applied as solution after 7 weeks (reference value: 22.9 +/- 0.8 mm); type: organism-based; details: in vivo, other, 1176 h
Corchorus olitorius [30] = assay: Phytotoxicity in Corchorus olitorius assessed as root length at 0.66 kg a.i/ha applied as solution after 7 weeks (reference value: 14.3 +/- 1.06 mm); type: organism-based; details: in vivo, other, 1176 h
Euphorbia heterophylla [31] = assay: Herbicidal activity against Euphorbia heterophylla in Corchorus olitorius plots assessed as weed cover at 1.32 kg a.i/ha after 7 weeks (reference value: 1.7 +/- 0.56 %); type: functional
Synedrella nodiflora [32] = assay: Herbicidal activity against Synedrella nodiflora in Corchorus olitorius plots assessed as weed recovery at 1.32 kg a.i/ha after 2 weeks (reference value: 78.3 +/- 0.74 %); type: functional
Abelmoschus esculentus [33] = assay: Phytotoxicity in Abelmoschus esculentus assessed as crop seedling injury at 0.99 kg a.i/ha after 2 weeks relative to untreated control; type: organism-based; details: in vivo, 336 h
Abelmoschus esculentus [34] = assay: Phytotoxicity in Abelmoschus esculentus assessed as root length at 0.99 kg a.i/ha applied as solution after 7 weeks (reference value: 23 +/- 0.34 mm); type: organism-based; details: in vivo, other, 1176 h
Asteraceae = assay: Herbicidal activity against Aspilia africana in Corchorus olitorius plots assessed as weed cover at 0.66 kg a.i/ha after 4 weeks (reference value: 20.1+/- 0.57 %); type: functional
Corchorus olitorius [35] = assay: Phytotoxicity in Corchorus olitorius assessed as seedling injury at 0.33 kg a.i/ha applied as solution after 7 weeks relative to control; type: organism-based; details: in vivo, other, 1176 h

## CCC(CC)Nc1c([N+](=O)[O-])cc(C)c(C)c1[N+](=O)[O-] [PENDIMETHALIN]
Chromolaena odorata [1]
  Activity: 31 /m2
Calopogonium mucunoides [2]
  Activity: 90%
Synedrella nodiflora [3]
  Activity: 90%
Calopogonium mucunoides [4]
  Activity: 31 /m2
Commelina diffusa [5]
  Activity: 50.8%
Euphorbia heterophylla [6]
  Activity: 36.2%
Talinum fruticosum [7]
  Activity: 83.9%
[8]
  Activity: 56.8%
Corchorus olitorius [9]
  Activity: 88.7%
Calopogonium mucunoides [10]
  Activity: 31 /m2
Euphorbia heterophylla [11]
  Activity: 41.7%
[12]
  Activity: 100%
Cyperus rotundus
  Activity: 1 /m2
Synedrella nodiflora [13]
  Activity: 33.2%
Commelina diffusa [14]
  Activity: 1 /m2
Ageratum conyzoides [15]
  Activity: 90%
Calopogonium mucunoides [16]
  Activity: 56.8%
Corchorus olitorius [17]
  Activity: 46.7%
Talinum fruticosum [18]
  Activity: 39.2%
Ageratum conyzoides [19]
  Activity: 31.7%
Chromolaena odorata [20]
  Activity: 41.7%
Euphorbia heterophylla [21]
  Activity: 47.9%
Calopogonium mucunoides [22]
  Activity: 47.9%
Abelmoschus esculentus [23]
  Activity: 11.8 mm
Euphorbia heterophylla [24]
  Activity: 48.3%
[25]
  Activity: 31 /m2
Synedrella nodiflora [26]
  Activity: 39.2%
Synedrella nodiflora [27]
  Activity: 36.2%
Synedrella nodiflora [28]
  Activity: 83.9%
Corchorus olitorius [29]
  Activity: 6 mm
Corchorus olitorius [30]
  Activity: 2.6 mm
Euphorbia heterophylla [31]
  Activity: 95%
Synedrella nodiflora [32]
  Activity: 13.3%
Abelmoschus esculentus [33]
  Activity: 47.9%
Abelmoschus esculentus [34]
  Activity: 11.8 mm
Asteraceae
  Activity: 63.3%
Corchorus olitorius [35]
  Activity: 18.3%
